In ChEMBL document CHEMBL1201862, “PubChem BioAssay data set” (2004):
Active and inactive are the calls of the source.

Experiments:
HeLa = test: HeLa cell cytotoxicity, dose response, cytotoxicity control for MITF activator project, CellTiter-Glo luminescence, cherry-pick samples (AID 540259); type: functional, cell-based; conditions: Homo sapiens
Escherichia coli = test: microbe, parasite or virus in culture
Tumor necrosis factor = Tumor necrosis factor (Homo sapiens, UniProt P01375); test: TNFa-triggered NF-kB activation inhibitors, SAR follow-up, cell-based, revised (AID 2337); type: functional
[1] = molecular target: T1, Nucleotide-binding oligomerization domain-containing protein 1 (Homo sapiens, UniProt Q9Y239); test: NOD1 signaling inhibitors, SAR follow-up, revised (AID 2333); type: functional
T1 sequence (Q9Y239 whole entry): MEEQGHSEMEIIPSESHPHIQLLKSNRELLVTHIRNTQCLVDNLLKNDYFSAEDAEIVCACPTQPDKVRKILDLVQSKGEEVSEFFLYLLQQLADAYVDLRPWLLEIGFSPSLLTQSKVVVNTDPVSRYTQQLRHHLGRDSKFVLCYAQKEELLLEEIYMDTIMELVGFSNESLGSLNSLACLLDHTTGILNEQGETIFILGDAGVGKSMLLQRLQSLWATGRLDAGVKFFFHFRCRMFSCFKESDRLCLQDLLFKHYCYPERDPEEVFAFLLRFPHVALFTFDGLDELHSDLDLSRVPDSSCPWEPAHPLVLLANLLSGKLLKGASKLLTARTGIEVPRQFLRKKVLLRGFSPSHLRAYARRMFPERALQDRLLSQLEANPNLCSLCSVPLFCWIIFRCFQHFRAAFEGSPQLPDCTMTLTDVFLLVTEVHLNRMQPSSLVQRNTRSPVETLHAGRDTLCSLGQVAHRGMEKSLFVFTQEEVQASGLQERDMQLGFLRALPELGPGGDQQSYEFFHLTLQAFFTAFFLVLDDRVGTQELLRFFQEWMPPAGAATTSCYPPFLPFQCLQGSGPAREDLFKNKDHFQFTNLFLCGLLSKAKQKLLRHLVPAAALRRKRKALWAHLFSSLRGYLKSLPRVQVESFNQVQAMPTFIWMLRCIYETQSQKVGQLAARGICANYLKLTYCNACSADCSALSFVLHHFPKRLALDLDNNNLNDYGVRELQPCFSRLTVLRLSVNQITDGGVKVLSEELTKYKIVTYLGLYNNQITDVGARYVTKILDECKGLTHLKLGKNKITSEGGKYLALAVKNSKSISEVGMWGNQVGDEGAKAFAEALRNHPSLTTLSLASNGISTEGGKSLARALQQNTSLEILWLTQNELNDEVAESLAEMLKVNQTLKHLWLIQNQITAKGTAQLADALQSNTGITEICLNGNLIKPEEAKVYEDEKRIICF

HEK293 = test: cells; conditions: Homo sapiens;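 further: cells exposed to compound for 14 hours overnight before viability readout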
Phospholipase D1 = molecular target: T2, Phospholipase D1 (Homo sapiens, UniProt Q13393); test: PLD1 inhibitor potency in cells, dose response (AID 602151); type: functional;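 further: cellular PLD1 assay in Calu-1 cells stimulated with PMA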
T2 sequence (Q13393 whole entry): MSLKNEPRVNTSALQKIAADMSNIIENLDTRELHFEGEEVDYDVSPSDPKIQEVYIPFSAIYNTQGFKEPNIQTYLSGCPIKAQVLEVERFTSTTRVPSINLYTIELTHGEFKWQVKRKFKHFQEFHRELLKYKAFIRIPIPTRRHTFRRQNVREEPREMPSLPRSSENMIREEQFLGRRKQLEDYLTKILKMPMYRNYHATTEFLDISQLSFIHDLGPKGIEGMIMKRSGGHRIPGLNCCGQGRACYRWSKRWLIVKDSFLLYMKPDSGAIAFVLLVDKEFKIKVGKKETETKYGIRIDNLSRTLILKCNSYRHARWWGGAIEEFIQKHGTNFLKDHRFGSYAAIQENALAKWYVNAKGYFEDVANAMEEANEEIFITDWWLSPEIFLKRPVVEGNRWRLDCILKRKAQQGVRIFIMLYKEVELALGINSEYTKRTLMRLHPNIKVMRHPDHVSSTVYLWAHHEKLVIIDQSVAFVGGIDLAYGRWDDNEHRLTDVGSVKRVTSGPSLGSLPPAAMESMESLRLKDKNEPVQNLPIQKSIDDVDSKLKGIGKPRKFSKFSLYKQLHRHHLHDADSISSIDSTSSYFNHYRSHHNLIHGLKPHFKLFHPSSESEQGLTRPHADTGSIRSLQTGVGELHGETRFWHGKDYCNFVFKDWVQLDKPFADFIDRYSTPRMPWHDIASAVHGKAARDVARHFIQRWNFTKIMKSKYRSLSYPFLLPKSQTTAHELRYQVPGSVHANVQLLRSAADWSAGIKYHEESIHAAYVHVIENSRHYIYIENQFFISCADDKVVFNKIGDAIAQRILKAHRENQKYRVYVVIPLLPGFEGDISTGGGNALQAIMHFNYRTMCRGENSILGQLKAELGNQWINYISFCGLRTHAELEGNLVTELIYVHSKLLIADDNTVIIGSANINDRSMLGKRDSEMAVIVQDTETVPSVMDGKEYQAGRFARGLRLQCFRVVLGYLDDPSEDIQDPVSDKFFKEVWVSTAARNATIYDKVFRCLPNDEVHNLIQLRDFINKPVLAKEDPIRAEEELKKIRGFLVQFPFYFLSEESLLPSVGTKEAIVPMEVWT

Phospholipase D2 = Phospholipase D2 (Homo sapiens, UniProt O14939); test: PLD2 inhibitor potency in cells, dose response (AID 602147); type: functional;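 further: cellular assay in HEK293 cells overexpressing GFP-tagged PLD2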
Phospholipase D2, sequence (O14939 whole entry): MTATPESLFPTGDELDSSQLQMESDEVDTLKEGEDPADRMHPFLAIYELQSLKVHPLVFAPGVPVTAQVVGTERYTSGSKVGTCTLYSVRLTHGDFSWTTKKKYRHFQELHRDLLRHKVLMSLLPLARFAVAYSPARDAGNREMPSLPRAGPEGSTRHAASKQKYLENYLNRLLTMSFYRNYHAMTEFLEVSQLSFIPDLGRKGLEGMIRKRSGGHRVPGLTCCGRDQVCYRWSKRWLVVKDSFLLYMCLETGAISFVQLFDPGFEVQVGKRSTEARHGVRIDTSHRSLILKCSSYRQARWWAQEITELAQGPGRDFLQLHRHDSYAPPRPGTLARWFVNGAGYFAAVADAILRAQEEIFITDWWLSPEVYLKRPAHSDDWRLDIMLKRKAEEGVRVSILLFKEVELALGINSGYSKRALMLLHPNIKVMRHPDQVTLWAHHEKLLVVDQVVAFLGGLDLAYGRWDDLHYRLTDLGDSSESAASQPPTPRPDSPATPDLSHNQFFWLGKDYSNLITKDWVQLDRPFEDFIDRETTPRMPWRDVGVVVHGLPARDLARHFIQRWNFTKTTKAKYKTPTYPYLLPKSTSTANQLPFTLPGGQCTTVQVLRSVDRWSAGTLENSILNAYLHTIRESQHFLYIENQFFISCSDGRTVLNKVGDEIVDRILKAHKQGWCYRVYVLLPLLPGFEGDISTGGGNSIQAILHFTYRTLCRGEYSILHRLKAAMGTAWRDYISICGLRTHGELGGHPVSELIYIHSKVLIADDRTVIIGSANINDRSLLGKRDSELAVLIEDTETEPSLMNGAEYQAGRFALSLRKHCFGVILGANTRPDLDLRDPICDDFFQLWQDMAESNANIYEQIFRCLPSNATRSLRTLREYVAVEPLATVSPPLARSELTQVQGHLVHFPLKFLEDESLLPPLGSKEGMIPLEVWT

Tumor necrosis factor, sequence (P01375 whole entry, the tested form may be a part): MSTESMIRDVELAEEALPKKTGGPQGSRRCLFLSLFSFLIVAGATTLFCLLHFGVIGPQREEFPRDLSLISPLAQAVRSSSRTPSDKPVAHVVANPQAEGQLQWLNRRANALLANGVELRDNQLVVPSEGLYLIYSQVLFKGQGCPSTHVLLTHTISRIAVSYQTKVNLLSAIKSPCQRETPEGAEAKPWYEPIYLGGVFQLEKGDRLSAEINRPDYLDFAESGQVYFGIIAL

Structure (SMILES): COc1cccc(C(=O)Nc2ccc(NC(=O)C3CC3)cn2)c1
- AC50 (HeLa): 122 µM (active)

Structure (SMILES): CCc1ccc(-c2cn3nc(-c4ccccc4)cnc3n2)cc1
- AC50 (HeLa): 241 µM (active)

Structure (SMILES): Cc1ccc(C(=O)N(CCN2CCCCC2)CC2CCCN(C3CCCC3)C2)s1 (stereo not drawn)
- AC50 (HeLa): 72.6 µM (active)

Structure (SMILES): C[C@H](NC(=O)c1[nH]cnc1C(=O)NCCCCCNC(=O)OC(C)(C)C)c1ccccc1
- AC50 (Escherichia coli): 63.8 µM (active)

Structure (SMILES): CC(=O)N1c2ccc(S(=O)(=O)N3CCN(c4ccc(Cl)cc4)CC3)cc2CC1C (stereo not drawn)
- IC50 (Tumor necrosis factor): 5.76 µM (active)
- IC50 [1]: 2.57 µM (active)
- IC50 (HEK293): > 20 µM (inactive)

Structure (SMILES): C[C@@H](CN1CC=C(n2c(=O)[nH]c3ccccc32)CC1)NC(=O)c1ccc2ccccc2c1
- IC50 (Phospholipase D1): 0.05 µM (active)
- IC50 (Phospholipase D2): 2.25 µM (active)

Structure (SMILES): C[C@@H](CN1CCC(n2c(=O)[nH]c3cc(I)ccc32)CC1)NC(=O)c1ccc2ccccc2c1
- IC50 (Phospholipase D1): 0.028 µM (active)
- IC50 (Phospholipase D2): 6.37 µM (active)

Structure (SMILES): C[C@@H](CN1CCC(n2c(=O)[nH]c3ccccc32)CC1)NC(=O)c1cc2ccccc2s1
- IC50 (Phospholipase D1): 0.002 µM (active)
- IC50 (Phospholipase D2): 0.22 µM (active)
